This is an account of results in patent publication US10548902B1, “Telomerase enhancement potential of ecdysterone” (SAMI LABS LIMITED, priority 2018, dated 2020).

The experiment concerns the target T1, Telomerase (Homo sapiens, UniProt O14746).
T1 construct: endogenous in cells; host or cells: PBMCs isolated from blood, stimulated with 10 μg/ml PHA
The experiment is described as follows: Telomerase activity, TeloTAGGG telomerase PCR ELISA (TRAP assay) in PHA-treated PBMCs. Particulars: for % increase in Telomerase activity: PBMCs, 10 μg/ml PHA, 48 hours. The format is cell-based. As to the method:
The assay was carried out using Telo TAGGG telomerase PCR ELISA kit (Roche). It allows highly specific amplification of telomerase mediated elongation products followed by detection through ELISA. In the first step telomerase adds the telomeric repeats (TTAGGG) tot eh 3′ end of the biotin labeled synthetic P1 primer. In the second step these elongation products are amplified using P2 and P1 primers generating telomerase specific 6 bp increments. PCR product is denatured and hybridized to a digioxigenin labeled telomere repeat specific detection probe. The resultant product is bound to a streptavidin specific miroplate via biotin labeled primer 1. The bound products are detected using anti digioxigenein antibody conjugated to horse radish peroxidase. The enzyme reaction is visualized using […] substrate.
2×10^5 PBMCs isolated from blood were seeded in RPMI 1640 medium in 6 well plates. Cells were treated with 10 μg/ml PHA along with different concentrations of ecdysterone/extracts containing ecdysterone. Cells were incubated in a humidified atmosphere with 5% CO2 for 48 hours. After 48 hours of incubation, cells were harvested and centrifuged at 3000 g for 10 minutes at 4° C. Supernatant was removed and PBS was added and centrifuged again. Pellet was suspended in lysis reagent on ice (TeloTAGGG™ Telomerase PCR ELISA). Suspension was retero pipetted at least thrice and incubated for 20 minutes on ice and centrifuged at 16000 g for 20 minutes at 4° C. TRAP assay followed by ELISA was performed as per manufacturer's instructions (TeloTAGGG™ Telomerase PCR ELISA, Merck).

T1 sequence (O14746 whole entry): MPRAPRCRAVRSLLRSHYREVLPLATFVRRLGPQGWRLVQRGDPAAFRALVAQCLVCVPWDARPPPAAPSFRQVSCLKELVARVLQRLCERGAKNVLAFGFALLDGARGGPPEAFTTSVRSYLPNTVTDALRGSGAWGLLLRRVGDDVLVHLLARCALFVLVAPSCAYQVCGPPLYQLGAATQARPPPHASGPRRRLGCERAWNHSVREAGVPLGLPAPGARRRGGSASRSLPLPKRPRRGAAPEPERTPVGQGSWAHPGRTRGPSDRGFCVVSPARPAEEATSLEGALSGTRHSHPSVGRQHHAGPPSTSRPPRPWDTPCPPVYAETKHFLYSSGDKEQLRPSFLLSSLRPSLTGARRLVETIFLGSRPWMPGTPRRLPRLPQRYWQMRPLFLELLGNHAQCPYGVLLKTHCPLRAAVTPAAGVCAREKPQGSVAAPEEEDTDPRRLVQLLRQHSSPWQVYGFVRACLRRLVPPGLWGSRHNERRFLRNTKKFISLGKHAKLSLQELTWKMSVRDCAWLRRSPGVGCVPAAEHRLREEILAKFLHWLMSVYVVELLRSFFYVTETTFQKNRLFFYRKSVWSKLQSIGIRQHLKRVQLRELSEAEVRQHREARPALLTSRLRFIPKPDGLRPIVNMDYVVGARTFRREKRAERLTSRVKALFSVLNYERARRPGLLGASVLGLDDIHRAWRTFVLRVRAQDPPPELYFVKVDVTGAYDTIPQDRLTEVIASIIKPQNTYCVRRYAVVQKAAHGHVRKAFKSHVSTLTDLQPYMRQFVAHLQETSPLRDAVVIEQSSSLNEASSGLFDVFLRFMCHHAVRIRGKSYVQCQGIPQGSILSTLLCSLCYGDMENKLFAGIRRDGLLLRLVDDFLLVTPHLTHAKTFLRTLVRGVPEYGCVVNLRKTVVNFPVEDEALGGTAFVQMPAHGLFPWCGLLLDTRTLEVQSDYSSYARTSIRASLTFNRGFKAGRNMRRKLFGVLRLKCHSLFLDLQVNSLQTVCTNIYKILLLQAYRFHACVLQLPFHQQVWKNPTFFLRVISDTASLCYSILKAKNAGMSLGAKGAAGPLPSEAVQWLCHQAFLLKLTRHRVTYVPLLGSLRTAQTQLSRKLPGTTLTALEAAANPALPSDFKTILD

With `CC(C)(O)CC[C@@H](O)[C@](C)(O)[C@H]1CC[C@@]2(O)C3=CC(=O)[C@@H]4C[C@@H](O)[C@@H](O)C[C@]4(C)[C@H]3CC[C@]12C` [Ecdysterone, ecdysterone], where the note is “concentrations of 0.062-0.25 μg/ml”, the “increase in telomerase activity (in words)” value is “significant increase”. For the same compound, the “% increase in Telomerase activity” value is, setting by setting: (ecdysterone 0.062 μg/ml) 62.1%; (ecdysterone 0.125 μg/ml) 64.7%; (ecdysterone 0.25 μg/ml) 63.31%; (ecdysterone 0.5 μg/ml) “Nil”.
